Calls of active or inactive are those of the source. The rule behind the calls is not given here.
Experiments:
Melanocortin receptor 4 [1] = target: T1, Melanocortin receptor 4 (Homo sapiens, UniProt P32245); experiment: Displacement of [125I]NDP-MSH from human MC4 receptor expressed in HEK293 cells; format: cell-based
Melanocortin receptor 4 [2] = target: T1, Melanocortin receptor 4; experiment: Agonist activity at human MC4 receptor expressed in CHO cells assessed as cAMP accumulation by ELISA; format: functional, cell-based
Melanocortin receptor 4 [3] = target: T1, Melanocortin receptor 4; experiment: Intrinsic activity at human MC4 receptor expressed in CHO cells assessed as cAMP accumulation relative to alpha-MSH; format: functional, cell-based
[4] = target: Melanocyte-stimulating hormone receptor (Homo sapiens, UniProt Q01726); experiment: Binding affinity at human MC1 receptor
Melanocortin receptor 3 = Melanocortin receptor 3 (Homo sapiens, UniProt P41968); experiment: Binding affinity at human MC3 receptor
Melanocortin receptor 5 = Melanocortin receptor 5 (Homo sapiens, UniProt P33032); experiment: Binding affinity at human MC5 receptor
[5] = Plasma clearance in rat at 2.5 mg/kg, iv; format: ADME, organism-based; parameters: dose 2.5 mg/kg, route intravenous
[6] = Volume of distribution in rat at 2.5 mg/kg, iv; format: ADME, organism-based; parameters: dose 2.5 mg/kg, route intravenous; settings: in vivo
[7] = Half life in rat at 2.5 mg/kg, iv; format: ADME, organism-based; parameters: dose 2.5 mg/kg, route intravenous; settings: in vivo
[8] = Concentration in rat brain at 2.5 mg/kg, iv after 1 hr; format: ADME, organism-based; parameters: dose 2.5 mg/kg, route intravenous; settings: read-out: Drug uptake
[9] = Concentration in rat brain at 2.5 mg/kg, iv after 4 hrs; format: ADME, organism-based; parameters: dose 2.5 mg/kg, route intravenous; settings: read-out: Drug uptake
[10] = Ratio of drug level in brain to plasma in rat at 2.5 mg/kg, iv; format: ADME, organism-based; parameters: dose 2.5 mg/kg, route intravenous; settings: read-out: BPR
[11] = Distribution coefficient, log D by shake flake method; format: physicochemical; settings: octanol/water
[12] = Apparent permeability across apical to basolateral side of Caco-2 cells; format: ADME, cell-based; settings: human
Caco-2 = experiment: Ratio of permeability from […] side of Caco-2 cells; format: ADME, cell-based; settings: human
[13] = Cmax in rat at 10 mg/kg, po after 3 hrs; format: ADME, organism-based; parameters: dose 10 mg/kg, route oral; settings: in vivo
[14] = AUC in rat at 10 mg/kg, po; format: ADME, organism-based; parameters: dose 10 mg/kg, route oral; settings: plasma
[15] = Oral bioavailability in rat at 10 mg/kg, po; format: ADME, organism-based; settings: in vivo
Rattus norvegicus [16] = experiment: Decrease in cumulative food intake in high-fat diet fed CD rat at 30 mg/kg, ip after 1 to 6 hrs; format: functional, organism-based; parameters: dose 30 mg/kg
Rattus norvegicus [17] = species on record: Rattus norvegicus; experiment: Decrease in cumulative food intake in high-fat diet fed CD rat after 24 hrs; format: functional, organism-based

T1 sequence (P32245 whole entry): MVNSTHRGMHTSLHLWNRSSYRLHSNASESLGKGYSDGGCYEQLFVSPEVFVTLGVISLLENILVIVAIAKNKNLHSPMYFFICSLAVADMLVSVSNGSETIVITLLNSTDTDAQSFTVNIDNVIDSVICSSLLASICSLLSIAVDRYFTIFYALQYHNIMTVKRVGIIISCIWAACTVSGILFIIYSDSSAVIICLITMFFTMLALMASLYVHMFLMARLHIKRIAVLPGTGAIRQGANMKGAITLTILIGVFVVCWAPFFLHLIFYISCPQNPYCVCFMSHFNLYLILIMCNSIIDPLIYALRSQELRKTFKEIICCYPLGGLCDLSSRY
Melanocortin receptor 5, sequence (P33032 whole entry): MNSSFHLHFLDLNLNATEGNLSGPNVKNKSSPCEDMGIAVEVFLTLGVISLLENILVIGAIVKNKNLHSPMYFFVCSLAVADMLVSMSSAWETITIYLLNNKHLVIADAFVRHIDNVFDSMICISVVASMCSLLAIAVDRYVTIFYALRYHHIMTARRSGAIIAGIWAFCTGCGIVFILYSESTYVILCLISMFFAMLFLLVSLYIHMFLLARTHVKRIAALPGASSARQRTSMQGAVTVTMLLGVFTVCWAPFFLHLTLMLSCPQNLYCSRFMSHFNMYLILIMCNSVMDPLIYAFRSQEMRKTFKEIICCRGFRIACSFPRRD
Melanocortin receptor 3, sequence (P41968 whole entry): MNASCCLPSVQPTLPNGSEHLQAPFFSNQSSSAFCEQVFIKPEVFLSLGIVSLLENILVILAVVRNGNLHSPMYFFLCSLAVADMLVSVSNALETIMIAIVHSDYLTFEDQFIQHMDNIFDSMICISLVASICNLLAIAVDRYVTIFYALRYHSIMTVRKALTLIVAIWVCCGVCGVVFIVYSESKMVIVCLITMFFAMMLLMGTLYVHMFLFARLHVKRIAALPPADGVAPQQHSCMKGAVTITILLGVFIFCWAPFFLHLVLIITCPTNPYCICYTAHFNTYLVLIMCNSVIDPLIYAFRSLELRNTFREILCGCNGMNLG
Melanocyte-stimulating hormone receptor, sequence (Q01726 whole entry): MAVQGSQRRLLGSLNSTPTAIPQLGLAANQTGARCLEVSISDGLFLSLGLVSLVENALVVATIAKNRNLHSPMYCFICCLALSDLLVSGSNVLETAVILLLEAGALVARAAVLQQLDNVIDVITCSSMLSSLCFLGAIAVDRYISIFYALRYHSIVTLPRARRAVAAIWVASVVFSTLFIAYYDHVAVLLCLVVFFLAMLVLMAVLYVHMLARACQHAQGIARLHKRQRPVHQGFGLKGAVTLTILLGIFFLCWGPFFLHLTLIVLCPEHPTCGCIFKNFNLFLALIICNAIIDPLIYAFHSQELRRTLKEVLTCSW

Ki (Melanocortin receptor 4 [1]): 11 nM
EC50 (Melanocortin receptor 4 [2]): 24 nM
Intrinsic activity (Melanocortin receptor 4 [3]): 105%
Ki [4]: 3.35 µM
Ki (Melanocortin receptor 3): 1600 nM
Ki (Melanocortin receptor 5): 240 nM
clearance [5]: 118 mL/min/kg
Vd [6]: 270 L/kg
half-life [7]: 1620 min
concentration at 1 h [8]: 5 ng/g
concentration at 4 h [9]: 32 ng/g
Kp [10]: 0.7
logD [11]: 1.8
Papp A→B [12]: 0.8 ×10⁻⁶ cm/s
Ratio (Caco-2): 25
Cmax [13]: 16 ng/mL
AUC [14]: 154 ng·h/mL
bioavailability [15]: 22%
SMILES: Cc1ccc(N2CCN(C(=O)[C@@H]3CN(C4CCOCC4)C[C@H]3c3ccc(Cl)cc3)CC2)c([C@@H](N)C(C)C)c1
Activity (Rattus norvegicus [16]): Active
Activity (Rattus norvegicus [17]): Dose-dependent effect

Reference: ChEMBL document CHEMBL1137624, “Synthesis and characterization of pyrrolidine derivatives as potent agonists of the human melanocortin-4 receptor” (Bioorg Med Chem Lett, 2007)
